Patent US7473711B2, “Androgen modulators” (Pfizer Inc., priority 2004, dated 2009)
pIC50: −log10 of the molar value. Where two headings read alike, the source gives them in different places.

How the values were obtained:
[1] = target: T1, hAR (human androgen receptor) (Homo sapiens, UniProt P10275); test: Competitive binding analysis on hAR extracts with 3H-DHT tracer
T1 construct: made in house; host or cells: baculovirus/Sf9 insect cells (extract)
T1 sequence (P10275 1-920): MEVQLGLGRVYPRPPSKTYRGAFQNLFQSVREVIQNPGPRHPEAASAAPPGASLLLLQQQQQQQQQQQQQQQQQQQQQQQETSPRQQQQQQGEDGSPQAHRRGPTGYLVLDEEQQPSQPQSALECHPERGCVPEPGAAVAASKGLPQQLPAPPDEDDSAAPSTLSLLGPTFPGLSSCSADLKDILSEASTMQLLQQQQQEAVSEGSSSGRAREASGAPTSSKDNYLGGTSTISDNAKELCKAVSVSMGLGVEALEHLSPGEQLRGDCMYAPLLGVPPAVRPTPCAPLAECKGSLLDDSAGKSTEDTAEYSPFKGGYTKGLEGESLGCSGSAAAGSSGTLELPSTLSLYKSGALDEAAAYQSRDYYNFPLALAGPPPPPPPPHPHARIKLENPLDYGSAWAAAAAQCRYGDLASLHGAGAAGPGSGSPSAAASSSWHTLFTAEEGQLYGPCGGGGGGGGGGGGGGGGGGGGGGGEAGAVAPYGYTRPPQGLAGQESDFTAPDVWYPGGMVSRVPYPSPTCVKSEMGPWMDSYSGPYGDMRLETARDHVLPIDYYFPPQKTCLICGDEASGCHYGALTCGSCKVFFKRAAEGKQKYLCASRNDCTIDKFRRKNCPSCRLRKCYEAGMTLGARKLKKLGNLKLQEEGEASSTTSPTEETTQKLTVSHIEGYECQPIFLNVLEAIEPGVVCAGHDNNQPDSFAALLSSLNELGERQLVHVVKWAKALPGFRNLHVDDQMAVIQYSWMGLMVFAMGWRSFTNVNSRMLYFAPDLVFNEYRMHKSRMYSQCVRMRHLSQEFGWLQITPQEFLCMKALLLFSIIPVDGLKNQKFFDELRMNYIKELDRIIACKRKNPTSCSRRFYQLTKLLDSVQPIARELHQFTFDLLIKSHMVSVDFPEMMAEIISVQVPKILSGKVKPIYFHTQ
Protocol: The compounds of Formula I have affinity for the androgen receptor. […] The description below describes how the assay was carried out.
Competitive binding analysis was performed on baculovirus/Sf9 generated hAR extracts in the presence or absence of different concentrations of test agent and a fixed concentration of ^3H-dihydrotestosterone (^3H-DHT) as tracer. This binding assay method is a modification of a protocol previously described (Liao S., et. al. J. Steroid Biochem. 20:11-17 1984). Briefly, progressively decreasing concentrations of compounds are incubated in the presence of hAR extract (Chang et al. P.N.A.S. Vol. 89, pp. […], 1992), hydroxylapatite, and 1 nM ^3H-DHT for one hour at 4° C. Subsequently, the binding reactions are washed three times to completely remove excess unbound ^3H-DHT. hAR bound ^3H-DHT levels are determined in the presence of compounds (i.e. competitive binding) and compared to levels bound when no competitor is present (i.e. maximum binding). Compound binding affinity to the hAR is expressed as the concentration of compound at which one half of the maximum binding is inhibited. Table II below provides the results that were obtained for selected compounds (reported data is the mean of multiple tests as shown below)

sebum production = test: Animal model for inhibition of sebum production (hamster ear, HPLC of sebum lipids); type: in vivo, male Syrian hamsters; conditions: 4 weeks; for Sum CE + WE: sum of CE and WE reductions; for % Reduction in CE / % Reduction in WE: five days a week; for % Reduction in CE: cholesterol ester vs vehicle control; for % Reduction in WE: wax ester vs vehicle control
Protocol: Animal Model for Inhibition of Sebum Production
Luderschmidt et al describes an animal model for testing whether compounds are capable of modulating sebum secretion. Arch. Derm. Res. 258, 185-191 (1977). This model uses male Syrian hamsters, whose ears contain sebaceous glands. The products of Examples 24, 27 and 28 were screened in this model.
Testing for sebum inhibition was carried out in the following manner. Male Syrian hamsters aged 9 to 10 weeks were introduced into the laboratory environment and acclimated for 2 weeks prior to use in the study. Each group consisted of 5 animals and run in parallel with vehicle and positive controls. Prior to administration, a sufficient quantity each compound was dissolved in 1 mL of a solvent consisting of transcutanol, ethanol, and propylene glycol (20/60/20% v/v) to achieve a final concentration of 0.5 w/v % or 3.0 w/v %.
Animals were dosed topically twice daily, five days a week, for 4 weeks. Each dose consisted of 25 micro liters of vehicle control or drug. The dose was applied to the ventral surfaces of both the right and left ears. All animals were sacrificed approximately 18-24 hours after the final dose. The right ears were collected from each animal and used for sebum analysis.
The ears were prepped for HPLC analysis in the following manner. One 8 mm distal biopsy punch was taken, just above the anatomical “V” mark in the ear to normalize the sample area. The punch was pulled apart. The ventral biopsy surface (the area where the topical dose was directly applied to the sebaceous glands) was retained for testing and the dorsal surface of the biopsy punch was discarded.
Tissue samples were blown with N2 gas and stored at −80° C. under nitrogen until HPLC analysis. In addition to ear samples, an aliquot of each drug and vehicle (at least 250 ul) was also stored at −80° C. for inclusion in the HPLC analysis.
HPLC analysis was carried out on an extract of the tissue sample. Tissue samples were contacted with 3 ml of solvent (a 4:1 admixture of 2,2,4-trimethylpentane and isopropyl alcohol). The mixture was shaken for 15 minutes and stored overnight at room temperature, protected from light. The next morning 1 milliliter of water was added to the sample and shaken for 15 minutes. The sample was then centrifuged at approximately 1500 rpm for 15 minutes. Two ml of the organic phase (top layer) was transferred to a glass vial, dried at 37° C., under nitrogen, for approximately 1 hour, and then lyophilized for approximately 48 hours. The samples were then removed from the lyophilizer and each vial was reconstituted with 600 μl of solvent A (trimethylpentane/tetrahydrofuran (99:1). The samples were then recapped and vortexed for 5 minutes.
200 μl of each sample was then transferred to a pre-labeled 200 μl HPLC vial with 200 μL glass inserts. The HPLC vials were placed in the autosampler tray for the Agilent 1100 series HPLC unit. The Agilent 1100 HPLC system consisted of a thermostated autosampler, a quarternary pump, a column heater, and an A/D interface module. All components were controlled by Agilent ChemStation software. A Waters Spherisorb S3W 4.6×100 mm analytical column was maintained at 30° C. by the Agilent column heater unit. The HPLC autosampler was programmed to maintain the sample temperature at 20 C throughout the run.
10 uL of each sample was injected in triplicate into the column. Two solvents were used for the solvent gradient. Solvent A was an admixture of trimethylpentane and tetrahydrofuran (99:1). Solvent B was ethylacetate. The gradient utilized is described in the table below: […]
The Sedex 75 Evaporative Light Scattering Detector (ELSD) was operated at 45° C. with a gain of 5, and N2 pressure maintained at 3.1 bar. Analog signal obtained by the instrument was sent to the Agilent A/D interface module where it was converted to a digital output. The conversion was based on a 10000 mAU/volt set point and the data rate was set at 10 Hz (0.03 min). […]

[2] = 0.5 w/v % topical twice daily, negative = increase in sebum

SMILES | pIC50 ([1]; baculovirus/Sf9 hAR extract, 1 nM 3H-DHT, one hour at 4° C, mean of multiple tests, read-out: AR Binding IC50) | Sum CE + WE (sebum production; 0.5 w/v % topical twice daily) | % Reduction in CE (sebum production; [2]) | % Reduction in WE (sebum production; [2]) | pIC50 [1] | Sum CE + WE (sebum production; 3 w/v % topical twice daily) | % Reduction in CE (sebum production; 3 w/v % topical twice daily) | % Reduction in WE (sebum production; 3 w/v % topical twice daily)
N#Cc1ccc(OCCCCCOc2ccc(C#N)c(C(F)(F)F)c2)cc1C(F)(F)F [Example 24] | 6.89 | −74 | −33% | −41% | – | – | – | –
COCC(COc1ccccc1)Oc1ccc(C#N)c(C(F)(F)F)c1 (stereo not drawn) [Example 27, 4-(1-Methoxymethyl-2-phenoxy-ethoxy)-2-trifluoromethyl-benzonitrile] | – | – | – | – | 8.30 | 147 | 63% | 84%
N#Cc1ccc(OC(CO)COc2ccccc2)cc1C(F)(F)F (stereo not drawn) [Example 28, 4-(1-Hydroxymethyl-2-phenoxy-ethoxy)-2-trifluoromethyl-benzonitrile] | – | – | – | – | 7.09 | 40 | 11% | 19%
